Results published in patent US20170273922A1, “UREA AND BIS-UREA BASED COMPOUNDS AND ANALOGUES THEREOF USEFUL IN THE TREATMENT OF ANDROGEN RECEPTOR MEDIATED DISEASES OR DISORDERS” (THE ROYAL INSTITUTION FOR THE ADVACEMENT OF LEARNING/MCGILL …, priority 2014, published 2017).
Entries after “also recorded” stand apart in the source; their conditions may differ.

What was measured:
Format in all cases: cell-based
[1] = tested on: LNCaP cells; test: MTT assay (cytotoxicity), LNCaP cells; details: LNCaP cells, 72 h, Table 4.2
Outline: (§1)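 Cells grown in RPMI 1640 with 10% FBS were seeded at 6-7×10^3 per well, left overnight, then exposed to test compounds at designated concentrations or DMSO vehicle for 72 h in fresh medium. Viability was read by MTT; triplicates, repeated at least twice.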

[2] = biological target: T1, T877A mutant of full-length AR (Homo sapiens, UniProt P10275, T878A); test: AR T877A mutant PSA-luc reporter assay in PC3 cells; details: 24 h; for inhibition of DHT-induced transactivation of T877A mutant AR (PSA-luc): 10 nM DHT; for agonism of AR T877A mutant (PSA-luc): absence of DHT
T1 sequence (P10275 1-920 T878A): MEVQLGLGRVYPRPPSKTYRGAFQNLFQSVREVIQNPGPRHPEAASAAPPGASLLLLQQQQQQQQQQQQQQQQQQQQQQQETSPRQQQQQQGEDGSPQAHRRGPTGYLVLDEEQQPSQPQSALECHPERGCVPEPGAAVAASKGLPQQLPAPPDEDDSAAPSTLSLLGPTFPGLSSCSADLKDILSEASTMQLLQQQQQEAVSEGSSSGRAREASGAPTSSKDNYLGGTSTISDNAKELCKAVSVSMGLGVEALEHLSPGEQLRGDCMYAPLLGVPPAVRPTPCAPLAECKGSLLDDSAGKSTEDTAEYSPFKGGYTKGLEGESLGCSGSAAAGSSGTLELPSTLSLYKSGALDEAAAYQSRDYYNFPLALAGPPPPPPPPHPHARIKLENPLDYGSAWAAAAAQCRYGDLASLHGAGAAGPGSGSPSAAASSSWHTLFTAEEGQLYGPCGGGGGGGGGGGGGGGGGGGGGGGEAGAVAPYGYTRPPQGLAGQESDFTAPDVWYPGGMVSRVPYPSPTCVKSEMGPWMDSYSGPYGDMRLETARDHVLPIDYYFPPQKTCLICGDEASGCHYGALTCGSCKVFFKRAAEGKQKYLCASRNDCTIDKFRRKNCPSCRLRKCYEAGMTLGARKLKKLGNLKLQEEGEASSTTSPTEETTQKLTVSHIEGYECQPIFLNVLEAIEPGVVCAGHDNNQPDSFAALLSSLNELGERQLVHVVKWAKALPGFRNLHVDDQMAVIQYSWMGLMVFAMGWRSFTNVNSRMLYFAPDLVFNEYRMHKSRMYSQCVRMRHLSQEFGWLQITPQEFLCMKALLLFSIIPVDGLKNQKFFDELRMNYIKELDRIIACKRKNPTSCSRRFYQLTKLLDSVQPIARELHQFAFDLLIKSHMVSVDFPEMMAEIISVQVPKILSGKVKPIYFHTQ
Source text: ENZ, enzalutamide; Bic, bicalutamide; OHF, hydroxyflutamide.

[3] = tested on: PSA expression in LNCaP cells; test: Western blot of PSA expression in LNCaP cells; details: 24 h; for suppression of PSA expression in LNCaP cells (FIG. 19C): whole medium
Procedure: FIG. 11: A) Compounds 562 and 746 suppressed DHT-induced AR activation in LNCaP cells which endogenously express the T877A mutant; B) Western blot analysis indicated compound 746 at 2.5 μM suppressed DHT-induced expression of the PSA in LNCaP cells. […] ENZ, enzalutamide; BIC, bicalutamide; EPI, EPI-001.
Experiments were in duplicate and repeated three times. […] LNCaP cells in whole medium were exposed to DMSO vehicle control or compounds for 24 h.

[4] = MTT assay (cytotoxicity), LNCaP cells; details: human, LNCaP cells
Outline: as §1

[5] = biological target: T2, Progesterone receptor (PR) (Homo sapiens, UniProt P06401); test: PR MMTV-luc reporter assay in PC3 cells; parameters: interference with transcriptional activity of PR: dose or concentration left out as unconfirmed; details: for effect on PR transcriptional activation (MMTV-luc): 10 nM R5020, PC3 cells, 24 h
T2 construct: expressed in transfected cells; host or cells: PC3
T2 sequence (P06401 1-933): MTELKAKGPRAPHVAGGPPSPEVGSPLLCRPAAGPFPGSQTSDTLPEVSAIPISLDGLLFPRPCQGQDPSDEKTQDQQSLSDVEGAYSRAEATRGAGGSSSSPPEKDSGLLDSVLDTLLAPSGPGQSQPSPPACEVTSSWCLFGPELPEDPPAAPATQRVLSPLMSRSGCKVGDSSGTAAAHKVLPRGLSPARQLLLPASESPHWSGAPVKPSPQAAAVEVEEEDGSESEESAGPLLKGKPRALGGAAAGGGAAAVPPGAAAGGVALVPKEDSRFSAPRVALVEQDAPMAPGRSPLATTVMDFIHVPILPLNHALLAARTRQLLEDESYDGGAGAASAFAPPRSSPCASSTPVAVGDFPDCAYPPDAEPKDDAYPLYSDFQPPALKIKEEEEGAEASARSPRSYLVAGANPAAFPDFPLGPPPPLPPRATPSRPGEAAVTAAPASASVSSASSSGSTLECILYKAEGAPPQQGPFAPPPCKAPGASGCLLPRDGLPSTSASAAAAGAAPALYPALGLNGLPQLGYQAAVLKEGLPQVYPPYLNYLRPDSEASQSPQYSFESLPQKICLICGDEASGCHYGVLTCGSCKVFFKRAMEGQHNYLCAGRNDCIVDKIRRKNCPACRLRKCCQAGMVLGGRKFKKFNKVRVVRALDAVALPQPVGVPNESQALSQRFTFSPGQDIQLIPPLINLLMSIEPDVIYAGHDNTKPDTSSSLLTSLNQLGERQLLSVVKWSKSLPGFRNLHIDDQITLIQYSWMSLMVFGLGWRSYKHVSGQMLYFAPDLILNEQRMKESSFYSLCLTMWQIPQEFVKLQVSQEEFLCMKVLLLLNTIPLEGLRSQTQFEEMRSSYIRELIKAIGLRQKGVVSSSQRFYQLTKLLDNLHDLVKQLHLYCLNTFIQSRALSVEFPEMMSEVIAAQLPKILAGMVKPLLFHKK

Structure (SMILES)	IC50 [1] [µM]	inhibition of DHT-induced transactivation of T877A mutant AR (PSA-luc) [2]	agonism of AR T877A mutant (PSA-luc) [2]	suppression of PSA expression in LNCaP cells (FIG. 19C) [3]	IC50 at 72 h ([4]; 72 h, Table 2.1) [µM]	interference with transcriptional activity of PR [5]	effect on PR transcriptional activation (MMTV-luc) [5]	suppression of PSA expression in LNCaP cells (FIG. 11B) ([3]; 10 nM DHT)	IC50 at 72 h ([4]; 72 h, Table 4.1) [µM]	IC50 at 72 h ([4]; 72 h treatment, Table 6.1) [µM]	suppression of DHT-induced expression of the PSA in LNCaP cells ([3]; 2.5 μM, 10 nM DHT)
O=C(Nc1cccc(C(F)(F)F)c1)Nc1ccc([N+](=O)[O-])c(C(F)(F)F)c1 [Compound 442]	0.5	dose-dependently suppressed; also recorded: dose-dependently inhibit	non-agonist	dose-dependently suppressed	–	–	–	–	–	–	–
N#Cc1ccc(NC(=O)Nc2cccc(C(F)(F)F)c2)cc1C(F)(F)F [Compound 467]	0.9	dose-dependently suppressed; also recorded: dose-dependently inhibit	non-agonist	dose-dependently suppressed	–	–	–	–	–	–	–
N#Cc1ccc(NC(=O)Nc2cccc(C(F)(F)F)c2)cc1Cl [Compound 492]	0.8	dose-dependently suppressed; also recorded: dose-dependently inhibit	non-agonist	–	–	–	–	–	–	–	–
O=C(N/C=C/c1cccc(C(F)(F)F)c1)Nc1ccncn1 [Compound 562]	–	inhibit	–	–	4.4	do not interfere	do not interfere; also recorded: selective towards the AR	suppressed	–	–	–
O=C(Nc1ccc(Br)nc1)Nc1cc(C(F)(F)F)cc(C(F)(F)F)c1 [Compound 566]	–	–	–	–	–	do not interfere	do not interfere	–	0.8	–	–
O=C(Nc1cccc(C(F)(F)F)c1)Nc1ccc(NC(=O)c2ccccc2F)c(C(F)(F)F)c1 [Compound 746]	–	inhibit	–	–	–	do not interfere	do not interfere; also recorded: selective towards the AR	suppressed	–	1	suppressed
